Experimental data as given in US20150087627A1, “COMBINATION OF KINASE INHIBITORS AND USES THEREOF” (Intellikine LLC, priority 2011, published 2015).
Like-named read-outs stand apart in the source and are kept apart here.

Columns and labels:
Assay type in all cases: biochemical
[1] = target: T1, PI3K δ (Homo sapiens, UniProt O00329); assay: PI 3-Kinase (human) HTRF assay, PI3K δ; settings: read-out: PI3K δ IC50
T1 construct: purchased Upstate / Millipore Corporation

[2] = target: T2, PI3K β (p110β/p85α) (Homo sapiens, UniProt P42338); assay: PI 3-Kinase (human) HTRF assay, PI3K β; settings: read-out: PI3K β IC50
T2 construct: purchased Upstate / Millipore Corporation

[3] = target: T3, PI3K α (p110α/p85α) (Homo sapiens, UniProt P42336); assay: PI 3-Kinase (human) HTRF assay, PI3K α; settings: read-out: PI3K α IC50
T3 construct: purchased Upstate / Millipore Corporation

[4] = target: T4, PI3K γ (p110γ) (Homo sapiens, UniProt P48736); assay: PI 3-Kinase (human) HTRF assay, PI3K γ; settings: Table 4 (PI3K α inhibitors); read-out: PI3K γ IC50
T4 construct: purchased Upstate / Millipore Corporation
T4 sequence (P48736 whole entry): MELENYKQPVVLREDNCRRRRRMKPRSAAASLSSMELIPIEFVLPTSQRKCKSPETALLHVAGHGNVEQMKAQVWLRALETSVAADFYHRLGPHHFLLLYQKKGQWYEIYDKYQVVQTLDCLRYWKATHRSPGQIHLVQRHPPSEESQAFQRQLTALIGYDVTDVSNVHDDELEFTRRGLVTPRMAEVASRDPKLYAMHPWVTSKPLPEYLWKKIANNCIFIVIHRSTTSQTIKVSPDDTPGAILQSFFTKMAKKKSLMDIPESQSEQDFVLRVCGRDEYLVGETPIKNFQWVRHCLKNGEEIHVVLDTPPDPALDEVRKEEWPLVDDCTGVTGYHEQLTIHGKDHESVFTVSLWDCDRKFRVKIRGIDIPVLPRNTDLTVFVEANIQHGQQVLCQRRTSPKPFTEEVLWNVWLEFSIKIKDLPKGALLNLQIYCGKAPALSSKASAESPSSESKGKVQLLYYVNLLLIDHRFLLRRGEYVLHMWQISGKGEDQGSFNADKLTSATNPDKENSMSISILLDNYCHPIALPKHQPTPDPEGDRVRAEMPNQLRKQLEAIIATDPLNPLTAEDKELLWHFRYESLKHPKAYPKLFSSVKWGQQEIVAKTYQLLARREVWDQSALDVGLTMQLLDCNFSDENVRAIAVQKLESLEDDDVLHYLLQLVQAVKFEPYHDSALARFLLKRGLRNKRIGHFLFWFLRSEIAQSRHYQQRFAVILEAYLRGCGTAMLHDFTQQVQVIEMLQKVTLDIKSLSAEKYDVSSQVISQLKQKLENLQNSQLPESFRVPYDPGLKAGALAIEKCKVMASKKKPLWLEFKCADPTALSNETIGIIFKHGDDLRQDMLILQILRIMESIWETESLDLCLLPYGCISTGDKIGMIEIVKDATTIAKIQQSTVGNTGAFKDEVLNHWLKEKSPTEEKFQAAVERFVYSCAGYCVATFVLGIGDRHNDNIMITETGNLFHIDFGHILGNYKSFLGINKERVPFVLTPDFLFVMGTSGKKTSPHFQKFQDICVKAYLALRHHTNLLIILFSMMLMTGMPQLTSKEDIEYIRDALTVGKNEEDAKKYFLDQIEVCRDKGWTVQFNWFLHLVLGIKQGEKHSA

T2 sequence (P42338 whole entry): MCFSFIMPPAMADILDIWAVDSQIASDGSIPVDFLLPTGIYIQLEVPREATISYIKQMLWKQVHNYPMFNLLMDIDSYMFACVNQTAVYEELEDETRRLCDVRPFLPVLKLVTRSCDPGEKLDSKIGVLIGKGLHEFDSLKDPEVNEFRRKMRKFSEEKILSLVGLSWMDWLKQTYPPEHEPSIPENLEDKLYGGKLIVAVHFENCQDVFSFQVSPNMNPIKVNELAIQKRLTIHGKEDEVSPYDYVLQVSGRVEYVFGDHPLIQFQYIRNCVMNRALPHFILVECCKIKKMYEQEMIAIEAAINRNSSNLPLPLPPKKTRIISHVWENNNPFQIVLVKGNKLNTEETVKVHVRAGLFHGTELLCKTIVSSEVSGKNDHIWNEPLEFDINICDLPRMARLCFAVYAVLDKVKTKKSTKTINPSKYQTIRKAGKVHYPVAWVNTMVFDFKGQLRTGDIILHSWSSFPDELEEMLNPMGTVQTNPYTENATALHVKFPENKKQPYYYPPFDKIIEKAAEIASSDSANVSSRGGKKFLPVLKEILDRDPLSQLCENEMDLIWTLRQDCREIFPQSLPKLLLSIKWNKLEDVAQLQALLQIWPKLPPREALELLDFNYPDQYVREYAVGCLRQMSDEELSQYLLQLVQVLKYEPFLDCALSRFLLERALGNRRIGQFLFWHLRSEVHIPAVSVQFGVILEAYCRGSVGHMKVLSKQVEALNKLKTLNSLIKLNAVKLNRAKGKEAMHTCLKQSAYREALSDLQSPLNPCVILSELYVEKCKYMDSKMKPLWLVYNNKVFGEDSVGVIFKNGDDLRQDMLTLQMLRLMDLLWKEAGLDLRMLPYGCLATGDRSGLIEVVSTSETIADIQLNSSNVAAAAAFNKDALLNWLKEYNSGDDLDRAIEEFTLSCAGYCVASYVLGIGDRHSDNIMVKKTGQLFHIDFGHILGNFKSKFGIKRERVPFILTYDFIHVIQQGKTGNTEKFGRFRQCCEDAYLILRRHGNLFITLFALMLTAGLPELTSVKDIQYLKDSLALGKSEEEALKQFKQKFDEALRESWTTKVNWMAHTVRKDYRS
T2 sequence (P27986 whole entry partner): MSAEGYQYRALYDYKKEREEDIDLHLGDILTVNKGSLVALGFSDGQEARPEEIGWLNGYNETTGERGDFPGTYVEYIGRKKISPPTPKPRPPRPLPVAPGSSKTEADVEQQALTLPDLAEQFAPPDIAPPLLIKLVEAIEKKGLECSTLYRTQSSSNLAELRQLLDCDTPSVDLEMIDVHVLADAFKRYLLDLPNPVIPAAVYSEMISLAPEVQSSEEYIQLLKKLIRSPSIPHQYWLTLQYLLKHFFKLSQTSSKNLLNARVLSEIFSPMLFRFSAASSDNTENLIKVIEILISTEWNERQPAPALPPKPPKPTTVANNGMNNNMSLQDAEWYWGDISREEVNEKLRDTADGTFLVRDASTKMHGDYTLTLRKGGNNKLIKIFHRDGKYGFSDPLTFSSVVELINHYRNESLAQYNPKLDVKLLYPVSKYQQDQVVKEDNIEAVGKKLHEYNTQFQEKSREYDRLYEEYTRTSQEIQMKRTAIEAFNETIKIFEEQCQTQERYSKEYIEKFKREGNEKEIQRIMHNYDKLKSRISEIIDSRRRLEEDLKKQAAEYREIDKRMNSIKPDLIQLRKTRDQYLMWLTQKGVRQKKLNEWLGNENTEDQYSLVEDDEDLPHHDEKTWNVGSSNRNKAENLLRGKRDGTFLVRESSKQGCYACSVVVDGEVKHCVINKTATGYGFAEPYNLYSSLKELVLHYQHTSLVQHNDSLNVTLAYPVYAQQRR
T1 sequence (O00329 whole entry): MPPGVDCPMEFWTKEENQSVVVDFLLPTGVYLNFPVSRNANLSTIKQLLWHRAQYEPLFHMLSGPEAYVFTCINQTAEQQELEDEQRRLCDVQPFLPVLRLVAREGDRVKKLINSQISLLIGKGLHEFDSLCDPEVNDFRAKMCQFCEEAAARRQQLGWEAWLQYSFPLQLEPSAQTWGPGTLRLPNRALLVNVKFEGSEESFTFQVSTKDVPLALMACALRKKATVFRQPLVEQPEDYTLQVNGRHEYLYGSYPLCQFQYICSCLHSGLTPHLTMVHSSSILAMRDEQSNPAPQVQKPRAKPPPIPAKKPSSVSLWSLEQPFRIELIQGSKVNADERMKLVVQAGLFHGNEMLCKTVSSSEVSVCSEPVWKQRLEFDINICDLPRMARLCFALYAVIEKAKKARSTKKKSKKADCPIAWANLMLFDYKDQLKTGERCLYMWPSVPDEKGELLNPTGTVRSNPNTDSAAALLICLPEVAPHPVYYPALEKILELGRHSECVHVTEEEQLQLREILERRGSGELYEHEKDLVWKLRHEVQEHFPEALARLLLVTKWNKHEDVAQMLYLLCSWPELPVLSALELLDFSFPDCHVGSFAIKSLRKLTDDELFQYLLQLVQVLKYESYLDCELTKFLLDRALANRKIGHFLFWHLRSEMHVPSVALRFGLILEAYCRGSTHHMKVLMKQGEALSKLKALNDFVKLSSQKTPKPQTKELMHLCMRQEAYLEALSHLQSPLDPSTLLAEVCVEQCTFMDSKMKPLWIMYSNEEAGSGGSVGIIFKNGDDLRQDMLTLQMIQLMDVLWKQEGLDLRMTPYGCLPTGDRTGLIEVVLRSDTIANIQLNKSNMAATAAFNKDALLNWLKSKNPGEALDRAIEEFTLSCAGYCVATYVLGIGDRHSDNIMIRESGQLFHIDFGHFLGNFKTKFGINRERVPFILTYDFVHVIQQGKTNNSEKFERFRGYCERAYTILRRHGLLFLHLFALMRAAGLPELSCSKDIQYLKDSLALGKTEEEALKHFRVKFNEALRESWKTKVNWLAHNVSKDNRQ
T1 sequence (P27986 whole entry partner): as the sequence (P27986 whole entry partner) above
T3 sequence (P42336 whole entry): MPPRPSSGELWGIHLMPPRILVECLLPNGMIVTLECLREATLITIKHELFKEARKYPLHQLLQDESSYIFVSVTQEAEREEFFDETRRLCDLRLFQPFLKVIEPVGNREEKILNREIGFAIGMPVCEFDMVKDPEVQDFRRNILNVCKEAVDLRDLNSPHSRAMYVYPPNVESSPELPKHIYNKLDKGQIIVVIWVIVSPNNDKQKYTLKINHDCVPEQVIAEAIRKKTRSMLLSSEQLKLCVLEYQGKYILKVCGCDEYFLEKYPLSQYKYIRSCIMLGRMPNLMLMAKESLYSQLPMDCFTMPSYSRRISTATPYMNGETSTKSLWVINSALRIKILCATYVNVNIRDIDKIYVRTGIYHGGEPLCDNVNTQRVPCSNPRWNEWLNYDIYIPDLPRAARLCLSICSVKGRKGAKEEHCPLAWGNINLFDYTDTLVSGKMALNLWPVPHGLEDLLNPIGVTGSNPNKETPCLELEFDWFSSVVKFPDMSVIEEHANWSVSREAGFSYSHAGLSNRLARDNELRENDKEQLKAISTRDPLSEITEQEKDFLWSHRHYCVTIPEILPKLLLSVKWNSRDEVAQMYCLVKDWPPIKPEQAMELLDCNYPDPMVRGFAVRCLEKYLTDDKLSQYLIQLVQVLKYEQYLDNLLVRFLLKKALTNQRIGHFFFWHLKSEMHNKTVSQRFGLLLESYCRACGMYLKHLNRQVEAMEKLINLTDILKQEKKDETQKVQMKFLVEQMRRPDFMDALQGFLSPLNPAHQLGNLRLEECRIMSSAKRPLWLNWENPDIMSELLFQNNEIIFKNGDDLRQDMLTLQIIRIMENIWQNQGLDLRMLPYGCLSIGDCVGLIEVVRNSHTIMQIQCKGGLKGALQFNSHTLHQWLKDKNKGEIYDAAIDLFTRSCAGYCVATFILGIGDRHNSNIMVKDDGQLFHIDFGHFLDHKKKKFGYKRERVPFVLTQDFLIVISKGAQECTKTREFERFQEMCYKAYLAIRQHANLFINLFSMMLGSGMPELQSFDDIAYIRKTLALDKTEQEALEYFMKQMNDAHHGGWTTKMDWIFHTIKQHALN
T3 sequence (P27986 whole entry partner): as the sequence (P27986 whole entry partner) above

IC50 [1] [µM]	IC50 [2] [µM]	IC50 [3] [µM]	IC50 ([1]; Table 4 (PI3K α inhibitors)) [µM]	IC50 ([2]; Table 4 (PI3K α inhibitors)) [µM]	IC50 ([3]; Table 4 (PI3K α inhibitors)) [µM]	IC50 [4] [µM]	SMILES
> 10	> 10	< 10	–	–	–	–	O=C(c1cnc2ccc(-c3cncc(S(=O)(=O)Nc4ccccc4)c3)cn12)N1CCOCC1 [Compound 447]
< 0.1	< 1	< 0.1	–	–	–	–	O=C(c1cnc2ccc(-c3cnc(Cl)c(NS(=O)(=O)c4ccccc4)c3)cn12)N1CCOCC1 [Compound 451]
< 0.1	< 1	< 0.1	–	–	–	–	O=C(c1cnc2ccc(-c3cnc(Cl)c(NS(=O)(=O)c4ccccc4F)c3)cn12)N1CCOCC1 [Compound 452]
> 10	> 10	< 10	–	–	–	–	COc1ccc(-c2ccc3ncc(C(=O)N4CCOCC4)n3c2)cc1NS(=O)(=O)c1ccccc1 [Compound 455]
> 10	> 10	< 1	–	–	–	–	O=C(c1cnc2ccc(-c3ccc(Cl)c(NS(=O)(=O)c4ccccc4)c3)cn12)N1CCOCC1 [Compound 459]
< 10	< 10	< 0.1	–	–	–	–	CN(C(=O)c1cnc2ccc(-c3ccc4oc(N)nc4c3)cn12)C1CCOCC1 [Compound 472]
> 10	> 10	> 10	–	–	–	–	Nc1n[nH]c2cc(-c3ccc4ncc(C(=O)N5CCOCC5)n4c3)ccc12 [Compound 487]
> 10	< 10	< 1	–	–	–	–	Nc1nc2c(-c3ccc4ncc(C(=O)N5CCOCC5)n4c3)cccc2o1 [Compound 496]
< 1	< 10	< 0.1	–	–	–	–	C[C@@H]1CN(C2CN(C(=O)c3cnc4ccc(-c5ccc6oc(N)nc6c5)cn34)C2)CCN1 [Compound 511]
< 1	< 10	< 0.1	–	–	–	–	C[C@H]1CN(C2CN(C(=O)c3cnc4ccc(-c5ccc6oc(N)nc6c5)cn34)C2)CCN1C [Compound 512]
> 10	> 10	< 1	–	–	–	–	CC1(C)COCCN1C(=O)c1cnc2ccc(-c3ccc4oc(N)nc4c3)cn12 [Compound 514]
< 0.1	< 0.1	< 0.1	–	–	–	–	CC(C)N1CCC(n2cnc3ccc(-c4cnc(Cl)c(NS(=O)(=O)c5ccccc5)c4)cc3c2=O)CC1 [Compound 521]
> 10	> 10	> 10	–	–	–	–	Nc1nc2cc(-c3cnc4ccc(C(=O)N5CCOCC5)cn34)ccc2o1 [Compound 541]
–	–	–	> 10	< 1	< 0.1	–	Nc1nc2cc(-c3ccc4ncc(N5CCOCC5)nc4n3)ccc2o1 [Compound 553]
–	–	–	< 1	< 1	< 0.1	–	CCOC(=O)N1CCN(c2cnc3ccc(-c4ccc5oc(N)nc5c4)nc3n2)CC1 [Compound 557]
–	–	–	–	–	< 0.1	< 0.1	CCOC(=O)N1CC=C(c2cnc3ccc(-c4ccc5oc(N)nc5c4)nc3n2)CC1 [Compound 560]
–	–	–	–	–	< 0.1	< 0.1	C[C@@H]1COCCN1c1cnc2ccc(-c3ccc4oc(N)nc4c3)nc2n1 [Compound 565]
–	–	–	–	–	–	< 1	Nc1nc2cc(-c3ccc4ncc(N5CC6CCC(C5)O6)cc4n3)ccc2o1 [Compound 579]
–	–	–	–	–	< 0.1	< 1	C[C@@H](N)C(=O)N1CCN(c2cnc3ccc(-c4ccc5oc(N)nc5c4)nc3n2)CC1 [Compound 582]
–	–	–	–	–	< 0.1	< 1	Nc1nc2cc(-c3ccc4ncc(N5CCC(O)CC5)cc4n3)ccc2o1 [Compound 613]
–	–	–	> 10	> 10	< 0.1	–	C[C@H]1COCCN1C1CN(c2cnc3ccc(-c4ccc5oc(N)nc5c4)nc3c2)C1 [Compound 619]
–	–	–	–	–	< 0.1	< 1	Nc1nc2cc(-c3ccc4ncc(N5CC(N6CCN(C7CC7)CC6)C5)cc4n3)ccc2o1 [Compound 621]
–	–	–	> 10	–	–	> 10	CN1CCN(c2ccc3ncc(-c4ccc5oc(N)nc5c4)cc3n2)CC1 [Compound 631]

SMILES	IC50 [1] [µM]	IC50 [2] [µM]	IC50 [3] [µM]	IC50 ([1]; Table 4 (PI3K α inhibitors)) [µM]	IC50 ([2]; Table 4 (PI3K α inhibitors)) [µM]	IC50 ([3]; Table 4 (PI3K α inhibitors)) [µM]	IC50 [4] [µM]
COc1ccc(-c2ccc3ncc(C(=O)N4CCOCC4)n3c2)cc1S(=O)(=O)Nc1ccccc1 [Compound 444]	> 10	> 10	< 10	–	–	–	–
Nc1nc2cc(-c3ccc4ncc(C(=O)N5CC[C@@H](F)C5)n4c3)ccc2o1 [Compound 475]	< 10	> 10	< 0.1	–	–	–	–
Nc1nc2cc(-c3ccc4ncc(C(=O)N5CC[C@@H](n6cccn6)C5)n4c3)ccc2o1 [Compound 477]	< 10	> 10	< 0.1	–	–	–	–
Nc1nc2cc(-c3ccc4ncc(C(=O)N5CC[C@H](n6cccn6)C5)n4c3)ccc2o1 [Compound 478]	< 1	< 10	< 0.1	–	–	–	–
C[C@@H]1CCCN1C(=O)c1cnc2ccc(-c3ccc4oc(N)nc4c3)cn12 [Compound 481]	< 10	< 10	< 0.1	–	–	–	–
Nc1n[nH]c2c(-c3ccc4ncc(C(=O)N5CCOCC5)n4c3)cccc12 [Compound 490]	> 10	> 10	> 10	–	–	–	–
